Measured values taken from US20090012087A1, “New Aza-Bicyclohexane Compounds Useful As Inhibitors Of Thrombin” (ASTRAZENECA AB, priority 2007, published 2009).

The compounds below were run against T1, Human α-thrombin (Homo sapiens, UniProt P00734) (assay: Test A: Determination of Thrombin Inhibition with a Chromogenic, Robotic Assay). Conditions: chromogenic substrate S-2366 0.30 mmol/L, α-thrombin 0.020 NIHU/mL, 40 minutes incubation at 37° C.
T1 construct: Human α-thrombin; purchased Sigma Chemical Co. or Hematologic Technologies
Type: biochemical
Protocol: Determination of Thrombin Inhibition with a Chromogenic, Robotic Assay
The thrombin inhibitor potency is measured with a chromogenic substrate method, in a Plato 3300 robotic microplate processor (Rosys AG, CH-8634 Hombrechtikon, Switzerland), using 96-well, half volume microtitre plates (Costar, Cambridge, Mass., USA; Cat No 3690). Stock solutions of test substance in DMSO (72 μL), 0.1-1 mmol/L, are diluted serially 1:3 (24+48 μL) with DMSO to obtain ten different concentrations, which are analysed as samples in the assay. 2 μL of test sample is diluted with 124 μL assay buffer, 12 μL of chromogenic substrate solution (S-2366, Chromogenix, Mölndal, Sweden) in assay buffer and finally 12 μL of α-thrombin solution (Human α-thrombin, Sigma Chemical Co. or Hematologic Technologies) in assay buffer, are added, and the samples mixed. The final assay concentrations are: test substance 0.00068-133 μmol/L, S-2366 0.30 mmol/L, α-thrombin 0.020 NIHU/mL. The linear absorbance increment during 40 minutes incubation at 37° C. is used for calculation of percentage inhibition for the test samples, as compared to blanks without inhibitor.

| IC50 | Compound |
| --- | --- |
| 780 nM | O=C(NCc1cc(Cl)ccc1-n1cncn1)[C@@H]1C[C@@H]2C[C@@H]2N1C(=O)C(O)Cn1cncn1 (stereo partly drawn) [Example 69, (1S,3S,5S)-2-(2-Hydroxy-3-1,2,4-triazol-1-yl-propionyl)-2-aza-bicyclo[3.1.0]hexane-3-carboxylic acid 5-chloro-2-1,2,4-triazol-1-yl-benzylamide] |
| 36 nM | O=C(NCc1cc(F)ccc1-n1cnnn1)[C@@H]1C[C@@H]2C[C@@H]2N1C(=O)[C@H](O)c1cccc(Cl)c1 [Example 70, (1S,3S,5S)-2-[(R)-2-(3-Chloro-phenyl)-2-hydroxy-acetyl]-2-aza-bicyclo[3.1.0]hexane-3-carboxylic acid 5-fluoro-2-tetrazol-1-yl-benzylamide] |
| 5 nM | N[C@@H](C(=O)N1[C@H](C(=O)NCc2cc(Cl)ccc2-n2cnnn2)C[C@@H]2C[C@@H]21)c1cccc(Cl)c1 [Example 71, (1S,3S,5S)-2-[(R)-2-Amino-2-(3-chloro-phenyl)-acetyl]-2-aza-bicyclo[3.1.0]hexane-3-carboxylic acid 5-chloro-2-tetrazol-1-yl-benzylamide] |
| 240 nM | NC(C(=O)N1[C@H](C(=O)NCc2cc(Cl)ccc2-n2cnnn2)C[C@@H]2C[C@@H]21)C1CCS(=O)(=O)CC1 (stereo partly drawn) [Example 72, (1S,3S,5S)-2-[2-Amino-2-(1,1-dioxo-hexahydro-1λ^6-thiopyran-4-yl)-acetyl]-2-aza-bicyclo[3.1.0]hexane-3-carboxylic acid 5-chloro-2-tetrazol-1-yl-benzylamide] |
| 8 nM | NC(C(=O)N1[C@H](C(=O)NCc2cc(Cl)ccc2-n2cnnn2)C[C@@H]2C[C@@H]21)c1ccccc1F (stereo partly drawn) [Example 73, (1S,3S,5S)-2-[2-Amino-2-(2-fluoro-phenyl)-acetyl]-2-aza-bicyclo[3.1.0]hexane-3-carboxylic acid 5-chloro-2-tetrazol-1-yl-benzylamide] |
| 29 nM | NC(C(=O)N1C[C@@H]2C[C@@H]2[C@H]1C(=O)NCc1cc(Cl)ccc1-n1cnnn1)c1ccccc1F (stereo partly drawn) [Example 74, (1S,2S,5R)-3-[2-Amino-2-(2-fluoro-phenyl)-acetyl]-3-aza-bicyclo[3.1.0]hexane-2-carboxylic acid 5-chloro-2-tetrazol-1-yl-benzylamide] |
| 650 nM | O=C(NCc1cc(Cl)ccc1-n1cnnn1)[C@@H]1[C@H]2C[C@H]2CN1C(=O)[C@H]1COCCN1 [Example 75, (1S,2S,5R)-3-((R)-Morpholine-3-carbonyl)-3-aza-bicyclo[3.1.0]hexane-2-carboxylic acid 5-chloro-2-tetrazol-1-yl-benzylamide acetate] |

| Compound | IC50 |
| --- | --- |
| O=C(NCc1cc(Cl)ccc1-n1cnnn1)[C@@H]1C[C@@H]2C[C@@H]2N1C(=O)C1(O)CCCc2ncccc21 (stereo partly drawn) [Example 76, (1S,3S,5S)-2-(5-Hydroxy-5,6,7,8-tetrahydro-quinoline-5-carbonyl)-2-aza-bicyclo[3.1.0]hexane-3-carboxylic acid 5-chloro-2-tetrazol-1-yl-benzylamide] | 11 nM |
| O=C(NCc1cc(Cl)ccc1-n1cnnn1)[C@@H]1C[C@@H]2C[C@@H]2N1C(=O)C1(O)CCCc2ncccc21 (stereo partly drawn) [Example 77, (1S,3S,5S)-2-(5-Hydroxy-5,6,7,8-tetrahydro-quinoline-5-carbonyl)-2-aza-bicyclo[3.1.0]hexane-3-carboxylic acid 5-chloro-2-tetrazol-1-yl-benzylamide] | 9 nM |
| (1S,3S,5S)-2-(4-Hydroxy-1-benzopyran-4-carbonyl)-2-aza-bicyclo[3.1.0]hexane-3-carboxylic acid 5-chloro-2-tetrazol-1-yl-benzylamide [Example 63] | 41 nM |
